Results taken from patent US20240415819A1, “MACROCYCLIC COMPOUNDS AS PROTEASOME SUBUNIT BETA TYPE-5 INHIBITORS” (Lead Discovery Center GmbH, priority 2021, published 2024).

Key:
[1] = test system: A549 (human lung carcinoma cell line); experiment: Glo assay of A549 cells (Table 3; ProteasomeGlo plating scheme); type: cell-based; details: Homo sapiens; A549 cells; read-out: PGLo A549
Outline: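 Luminescent read-out of cellular chymotrypsin-like proteasome activity: cells exposed to compound 105 min at 37° C., 5% CO2, then given Suc-LLVY-Glo reagent, shaken 2-5 min and kept dark 10-15 min before reading. Values are IC50 [nM].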

[2] = test system: MM1 S (B lymphoblast cell line); experiment: 48 hr CTG viability assay, MM1S; type: cell-based; details: Homo sapiens, 48 hr CTG, read-out: MM1S IC50
Outline: (§1)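 Growth inhibition by compound over 48 h; IC50 (nM) derived from duplicate CellTiter-Glo luminescence readings across 0.0015–10 uM.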

[3] = molecular target: T1, β5 subunit of the human immunoproteasome (IPS) (Homo sapiens, UniProt P28062); experiment: β5 inhibition assay, human immunoproteasome (Suc-LLVY-AMC); type: biochemical; details: IC50 class, Suc-LLVY-AMC substrate
T1 construct: purchased Boston Biochem E-370
Outline: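 Human immunoproteasome (1 nM final) was preincubated 10 min at RT with compound in 100 mM HEPES pH 7.5, 50 mM NaCl, 0.02% SDS, 1 mM DTT. Suc-LLVY-AMC (22.6 μM final) was then added for 4 h at RT in the dark. After stopping with 1 μM bortezomib, AMC fluorescence was read (ex 355/em 460 nm).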

[4] = test system: RPMI 8226 (B lymphocyte cell line, multiple myeloma); experiment: 48 hr CTG viability assay, RPMI 8226; type: cell-based; details: Homo sapiens, RPMI-8226; 48 hr CTG; read-out: RPMI-8226 IC50
Outline: as §1

[5] = test system: MDA-MB-468 (breast carcinoma); experiment: 48 hr CTG viability assay, MDA-MB-468; type: cell-based; details: Homo sapiens
Method: (§2) A viability assay was conducted for 48 hours to evaluate the inhibition of cancer cell growth by proteasome inhibitors. Briefly, the candidate cell line was plated with a 96-well plate following density of cells, respectively. 6×10^3 Cells/well for A2780 (human ovarian cancer cell line) and MDA-MB-468 (breast carcinoma), 8×10^3 Cells/well for Hs746T (human gastric carcinoma cell line), 1.1×10^4 Cells/well for MM1 S and RPMI 8226 (multiple myeloma). After 24 hours, the cells were treated with various concentrations of the compound (ranging from 0.0015 uM to 10 uM). […] After 48 hours of incubation at 37° C., 5% CO2 incubator, cells were analyzed for viability using the CellTiter-Glo Luminescent Cell Viability assay (Promega, Cat #G7570). All viability assays were performed in duplicate and Luminescence was read using an Envision (Perkin Elmer, USA). Data were analyzed using XLfit software. […] (human gastric carcinoma cell line), MM1 S (B lymphoblast cell line), and RPMI 8226 (B lymphocyte cell line, multiple myeloma). Inhibition is indicated as IC50 [nM] (“-”=not measured).

[6] = test system: Hs 746T (human gastric carcinoma cell line); experiment: 48 hr CTG viability assay, Hs 746T; type: cell-based; details: Hs746T, 48 hr CTG, read-out: Hs 746T IC50
Outline: as §1

[7] = molecular target: T2, β5 subunit of the human constitutive proteasome (CPS) (Homo sapiens, UniProt P28074); experiment: β5 inhibition assay, human constitutive proteasome (Suc-LLVY-AMC); type: biochemical; details: IC50 class, Suc-LLVY-AMC substrate
T2 construct: purchased Boston Biochem E-360
Method: The enzymatic activity of the β5 subunit of the human constitutive proteasome (CPS) is analyzed. In another assay, which differs from the assay of the human constitutive proteasome only in using the human immunoproteasome (IPS) the enzymatic activity of the β5 subunit of the human immunoproteasome (IPS) is analyzed. […] Inhibition is indicated as IC50 [nM] (“-”=not measured).

[8] = test system: A2780 (human ovarian cancer cell line); experiment: 48 hr CTG viability assay, A2780; type: cell-based
Method: as §2

Row | Compound | IC50 [1] | IC50 [2] | IC50 [3] | IC50 [4] | IC50 [5] | IC50 [6] | IC50 [7] | IC50 [8]
1 | Cc1ccc2cc1CNC(=O)[C@H](CCc1ccccc1)NC(=O)[C@@H](NC(=O)[C@H](C)c1ccc(N)cc1)CC(=O)N1CCCC(CCO2)C1 (stereo partly drawn) [Compound 738, (2R)-2-(4-aminophenyl)-N-((9S,12S)-5^4-methyl-8,11,14-trioxo-9-phenethyl-4-oxa-7,10-diaza-1(3,1)-piperidina-5(1,3)-benzenacyclotetradecaphane-12-yl)propanamide] | < 100 nM | < 100 nM | < 100 nM | < 100 nM | < 100 nM | < 100 nM | < 100 nM | < 100 nM
2 | Cc1ccc2cc1CNC(=O)[C@H](CCc1ccccc1)NC(=O)[C@@H](NC(=O)[C@@H](C)c1ccc(N)cc1)CC(=O)N1CCCC(CCO2)C1 (stereo partly drawn) [Compound 634, (2S)-2-(4-aminophenyl)-N-((9S,12S)-5^4-methyl-8,11,14-trioxo-9-phenethyl-4-oxa-7,10-diaza-1(3,1)-piperidina-5(1,3)-benzenacyclotetradecaphane-12-yl)propanamide] | < 100 nM | < 100 nM | < 100 nM | < 100 nM | < 100 nM | < 100 nM | < 100 nM | < 100 nM
3 | Cc1ccc2cc1CNC(=O)[C@H](CCc1ccccc1)NC(=O)[C@@H](NC(=O)C(C)(C)CO)CC(=O)NCCCCO2 [Compound 735, 3-hydroxy-2,2-dimethyl-N-((10S,13S)-1^4-methyl-8,11,14-trioxo-13-phenethyl-2-oxa-7,12,15-triaza-1(1,3)-benzenacyclohexadecaphane-10-yl)propanamide] | > 5000 nM | 1000 to 5000 nM | < 100 nM | 1000 to 5000 nM | > 5000 nM | > 5000 nM | 100 to 500 nM | 
4 | Cc1ccc2cc1CNC(=O)[C@H](CCc1ccccc1)NC(=O)[C@@H](NC(=O)C(F)(F)CO)CC(=O)N1CCCC(CCO2)C1 (stereo partly drawn) [Compound 599, 2,2-difluoro-3-hydroxy-N-((9S,12S)-5^4-methyl-8,11,14-trioxo-9-phenethyl-4-oxa-7,10-diaza-1(3,1)-piperidina-5(1,3)-benzenacyclotetradecaphane-12-yl)propanamide] | < 100 nM | < 100 nM | < 100 nM | < 100 nM | < 100 nM | < 100 nM | < 100 nM | 
5 | Cc1ccc2cc1CNC(=O)[C@H](CCc1ccccc1)NC(=O)[C@@H](NC(=O)C1(CO)CCOCC1)CC(=O)N1CCCC(CCO2)C1 (stereo partly drawn) [Compound 671, 4-(hydroxymethyl)-N-((9S,12S)-5^4-methyl-8,11,14-trioxo-9-phenethyl-4-oxa-7,10-diaza-1(3,1)-piperidina-5(1,3)-benzenacyclotetradecaphane-12-yl)tetrahydro-2H-pyran-4-carboxamide] | < 100 nM | < 100 nM | < 100 nM | < 100 nM | < 100 nM | < 100 nM | < 100 nM | 
6 | Cc1ccc2cc1CNC(=O)[C@H](CCc1ccccc1)NC(=O)[C@@H](NC(=O)N1CCc3cc(N)ccc31)CC(=O)N1CCCC(CCO2)C1 (stereo partly drawn) [Compound 704, 5-amino-N-((9S,12S)-5^4-methyl-8,11,14-trioxo-9-phenethyl-4-oxa-7,10-diaza-1(3,1)-piperidina-5(1,3)-benzenacyclotetradecaphane-12-yl)indoline-1-carboxamide] | < 100 nM | < 100 nM | < 100 nM | < 100 nM | < 100 nM | < 100 nM | < 100 nM | 
7 | Cc1ccc2cc1CNC(=O)[C@H](CCc1ccccc1)NC(=O)[C@@H](NC(=O)C(C)(C)CO)CCC(=O)NCCCO2 [Compound 732, 3-hydroxy-2,2-dimethyl-N-((10S,13S)-1^4-methyl-7,11,14-trioxo-13-phenethyl-2-oxa-6,12,15-triaza-1(1,3)-benzenacyclohexadecaphane-10-yl)propanamide] | 1000 to 5000 nM | 1000 to 5000 nM | < 100 nM | 500 to 1000 nM | 1000 to 5000 nM | > 5000 nM | < 100 nM | 
